Patent US20240292837A1, “CHROMONE DERIVATIVES AS ATTRACTANTS AND REPELLENTS OF BLOOD-SUCKING, BITING INVERTEBRATES” (CENTRE NATIONAL DE LA RECHERCHE SCIENTIFIQUE, priority 2021, published 2024)

System: Aedes albopictus
Assay: Evaluation of the repellent and/or attractant effect in a tunnel olfactometer
Assay type: in vivo
Settings: for Repulsion index 5 mg deposition / Repulsion index 10 mg deposition / Repulsion index 30 mg deposition / RI (%) repulsion index / KI (%) kairomone index: negative = attractant; for Control (±SD), mean number of mosquitoes in the control zone / Treated/Product (±SD), mean number of mosquitoes in the treated zone / Treated (±SD), mean number of mosquitoes in the treated zone: 15 females; for repellent or attractant effect (in words): over the doses tested; for repellent effect compared with Picaridin and DEET (in words): equivalent/identical doses (10 and 30 mg/ml)
From the text: The tunnel olfactometer is a 1 m long glass parallelepiped with a 5×5 cm side. The tube is equipped with 3 openings: two on each side, one for feeding in the paper impregnated with the product to be tested, and the other for the paper containing a control. The opening in the middle is for feeding in mosquitoes. Both ends of the tube are closed by covers.
The olfactometer is divided into three compartments or zones: • a neutral zone in the middle; • a test or treated area which is on the side of depositing the product; and • a control area which is located on the side of depositing the control.
For each test, 15 Aedes albopictus females (aged 5 to 12 days) are fed into the neutral zone of the tunnel olfactometer. Mosquitoes are kept for 10 minutes for a time of adaptation. Papers impregnated and dried with a solution of product in ethanol and pure ethanol as a reference are fed in, then the barriers are opened to allow mosquitoes to circulate freely inside the tube. Three test repetitions were carried out for each product. A repetition lasts 20 minutes and the results observed were recorded every 5 minutes.
The values measured are the activity index and the repulsion index. The activity index (Al) describes the percentage of mosquitoes in the control zone (T) and in the treated zone (P) with respect to the total number of mosquitoes tested. Said value should be greater than 30% for the test to be considered significant.
The repulsion index (RI) represents the percentage of the difference in the number of mosquitoes in the control part and in the treated part divided by the sum of the two values. A negative value of the parameter (RI) indicates an attractant activity (kairomone index. KI) of the product tested.
[formula] • Al: Activity index • RI: Repulsion index • T: Number of mosquitoes in the control area • P: Number of mosquitoes in the treated area

Which results are given for `C=CC(O)CCCCC` (stereo not shown) [Octen-3-ol, octen-3-ol, reference compound]?
Repulsion index 5 mg deposition: −41.7%; Repulsion index 10 mg deposition: −54.7%; Repulsion index 30 mg deposition: −61.6%

Which “Repulsion index 5 mg deposition” value does the source give for `CCC(C)OC(=O)N1CCCCC1CCO` (stereo not shown) [Picaridin, reference compound] here?
Its value is 42.6%.

And the “Repulsion index 10 mg deposition” value?
Its value is 49.6%.

And the “Repulsion index 30 mg deposition” value?
Its value is 59.7%.

How did the “AI (%) activity index” value (dose 5 mg/ml) turn out when `CC[C@H](C)Oc1ccc2c(=O)ccoc2c1` [S-(+)-sec-butoxychromone] was run?
The value was 91.7%.

What about the “Control (±SD), mean number of mosquitoes in the control zone” value (“Control (±SD), mean number of mosquitoes” for short) (dose 5 mg/ml in treated zone) of the same compound?
The value was 4.8 ± 0.5.

What about the “Treated/Product (±SD), mean number of mosquitoes in the treated zone” value (“Treated/Product (±SD), mean number” below) (dose 5 mg/ml) of the same compound?
The value was 9.0 ± 0.2.

And the “RI (%) repulsion index” value (dose 5 mg/ml)?
The value was −31.2%.

And the “AI (%) activity index” value (dose 10 mg/ml)?
Its value is 87.2%.

And the “Control (±SD), mean number of mosquitoes” value (dose 10 mg/ml in treated zone)?
The value was 4.2 ± 0.9.

What about the “Treated/Product (±SD), mean number” value (dose 10 mg/ml) of the same compound?
The value was 8.9 ± 1.1.

And the “RI (%) repulsion index” value (dose 10 mg/ml)?
The value was −35.8%.

And the “AI (%) activity index” value (dose 30 mg/ml)?
The value was 83.3%.

What about the “Control (±SD), mean number of mosquitoes” value (dose 30 mg/ml in treated zone) of the same compound?
The value was 9.3 ± 0.8.

What about the “Treated/Product (±SD), mean number” value (dose 30 mg/ml) of the same compound?
The value was 3.3 ± 0.2.

And the “RI (%) repulsion index” value (dose 30 mg/ml)?
Its value is 47.9%.

And the “AI (%) activity index” value (dose 60 mg/ml)?
The value was 89.4%.

What about the “Control (±SD), mean number of mosquitoes” value (dose 60 mg/ml in treated zone) of the same compound?
Its value is 11.4 ± 0.8.

What about the “Treated/Product (±SD), mean number” value (dose 60 mg/ml) of the same compound?
Its value is 2.0 ± 0.0.

And the “RI (%) repulsion index” value (dose 60 mg/ml)?
The value was 70.5%.

What about the “repellent or attractant effect (in words)” value of the same compound?
The value was “attractant at low doses and repellent at high doses”.

For `CCC[C@H](C)Oc1ccc2c(=O)ccoc2c1` [S-(+)-sec-pentoxychromone], which “AI (%) activity index” value (dose 1 mg/ml) is on record?
The value was 93.3%.

What about the “Control (±SD), mean number of mosquitoes” value (dose 1 mg/ml in treated zone) of the same compound?
Its value is 3.8 ± 0.3.

And the “Treated (±SD), mean number of mosquitoes in the treated zone” value (dose 1 mg/ml)?
Its value is 10.3 ± 0.7.

And the “KI (%) kairomone index” value (dose 1 mg/ml)?
Its value is −46.3%.

What about the “AI (%) activity index” value (dose 5 mg/ml) of the same compound?
The value was 83.9%.

And the “Control (±SD), mean number of mosquitoes” value (dose 5 mg/ml in treated zone)?
Its value is 3.1 ± 1.2.

And the “Treated/Product (±SD), mean number” value (dose 5 mg/ml)?
The value was 9.5 ± 0.7.

And the “KI (%) kairomone index” value (dose 5 mg/ml)?
Its value is −52.4%.

And the “AI (%) activity index” value (dose 10 mg/ml)?
The value was 95%.

What about the “Control (±SD), mean number of mosquitoes” value (dose 10 mg/ml in treated zone) of the same compound?
Its value is 5.8 ± 0.2.

What about the “Treated/Product (±SD), mean number” value (dose 10 mg/ml) of the same compound?
The value was 8.4 ± 0.1.

What about the “KI (%) kairomone index” value (dose 10 mg/ml) of the same compound?
Its value is −18.2%.

And the “AI (%) activity index” value (dose 30 mg/ml)?
The value was 77.8%.

And the “Control (±SD), mean number of mosquitoes” value (dose 30 mg/ml in treated zone)?
Its value is 5.2 ± 0.3.

What about the “Treated/Product (±SD), mean number” value (dose 30 mg/ml) of the same compound?
The value was 6.5 ± 0.7.

What about the “KI (%) kairomone index” value (dose 30 mg/ml) of the same compound?
Its value is −10.7%.

What about the “repellent or attractant effect (in words)” value of the same compound?
Its value is “attractant”.

With R-(−)-sec-butoxychromone as the compound, how does the “Repulsion index 5 mg deposition” value read?
Its value is 51%.

And the “Repulsion index 10 mg deposition” value?
The value was 65.6%.

And the “Repulsion index 30 mg deposition” value?
The value was 79.5%.

What about the “AI (%) activity index” value (dose 5 mg/ml) of the same compound?
The value was 84%.

What about the “Control (±SD), mean number of mosquitoes” value (dose 5 mg/ml in treated zone) of the same compound?
Its value is 9.5 ± 0.3.

What about the “Treated/Product (±SD), mean number” value (dose 5 mg/ml) of the same compound?
Its value is 3.1 ± 0.1.

And the “RI (%) repulsion index” value (dose 5 mg/ml)?
The value was 51.3%.

And the “AI (%) activity index” value (dose 10 mg/ml)?
The value was 88.9%.

What about the “Control (±SD), mean number of mosquitoes” value (dose 10 mg/ml in treated zone) of the same compound?
Its value is 11 ± 0.3.

What about the “Treated/Product (±SD), mean number” value (dose 10 mg/ml) of the same compound?
Its value is 2.3 ± 0.7.

What about the “RI (%) repulsion index” value (dose 10 mg/ml) of the same compound?
The value was 65.6%.

And the “AI (%) activity index” value (dose 30 mg/ml)?
The value was 92.2%.

What about the “Control (±SD), mean number of mosquitoes” value (dose 30 mg/ml in treated zone) of the same compound?
Its value is 12.4 ± 0.1.

And the “Treated/Product (±SD), mean number” value (dose 30 mg/ml)?
The value was 1.4 ± 0.1.

And the “RI (%) repulsion index” value (dose 30 mg/ml)?
Its value is 79.5%.

And the “AI (%) activity index” value (dose 60 mg/ml)?
The value was 92%.

And the “Control (±SD), mean number of mosquitoes” value (dose 60 mg/ml in treated zone)?
Its value is 12.2 ± 0.1.

And the “Treated/Product (±SD), mean number” value (dose 60 mg/ml)?
Its value is 1.6 ± 0.2.

What about the “RI (%) repulsion index” value (dose 60 mg/ml) of the same compound?
The value was 76.6%.

And the “repellent effect compared with Picaridin and DEET (in words)” value (listed as (R) 7-sec-butoxychromone)?
The value was “as effective and more effective than Picaridin and DEET”.

And the “repellent effect compared with Picaridin and DEET (in words)” value (listed as enantiomer R)?
The value was “as significant as DEET and picaridin”.

And the “repellent or attractant effect (in words)” value?
Its value is “repellent at any dose”.

Which “AI (%) activity index” value (dose 1 mg/ml) does the source give for R-(−)-sec-pentoxychromone here?
The value was 92.2%.

And the “Control (±SD), mean number of mosquitoes” value (dose 1 mg/ml in treated zone)?
The value was 5.3 ± 0.3.

And the “Treated (±SD), mean number of mosquitoes in the treated zone” value (dose 1 mg/ml)?
The value was 8.6 ± 0.2.

What about the “KI (%) kairomone index” value (dose 1 mg/ml) of the same compound?
The value was −24.3%.

And the “AI (%) activity index” value (dose 5 mg/ml)?
Its value is 86.7%.

What about the “Control (±SD), mean number of mosquitoes” value (dose 5 mg/ml in treated zone) of the same compound?
The value was 2.2 ± 0.4.

And the “Treated/Product (±SD), mean number” value (dose 5 mg/ml)?
Its value is 10.8 ± 0.6.

And the “KI (%) kairomone index” value (dose 5 mg/ml)?
Its value is −66.6%.

What about the “AI (%) activity index” value (dose 10 mg/ml) of the same compound?
Its value is 81.1%.

What about the “Control (±SD), mean number of mosquitoes” value (dose 10 mg/ml in treated zone) of the same compound?
Its value is 3.6 ± 0.4.

What about the “Treated/Product (±SD), mean number” value (dose 10 mg/ml) of the same compound?
Its value is 8.6 ± 0.1.

And the “KI (%) kairomone index” value (dose 10 mg/ml)?
The value was −47.1%.

What about the “AI (%) activity index” value (dose 30 mg/ml) of the same compound?
The value was 90%.

What about the “Control (±SD), mean number of mosquitoes” value (dose 30 mg/ml in treated zone) of the same compound?
Its value is 6.6 ± 0.4.

What about the “Treated/Product (±SD), mean number” value (dose 30 mg/ml) of the same compound?
The value was 6.9 ± 0.3.

What about the “KI (%) kairomone index” value (dose 30 mg/ml) of the same compound?
Its value is −2.8%.

And the “repellent or attractant effect (in words)” value?
The value was “attractant”.
